Assay [1] deals with RPMI-8402 cells. In words: Cell viability assay (CellTiter-Glo, 7 days), RPMI-8402. The assay is classed as cell-based, human. The protocol: (§1) Cells were plated in 50 μL of the corresponding media in 96-well plates. A 2-fold dilution series of 2* concentrated LLC0424 was prepared in a medium with the highest concentration being 60 μM. Then 50 μL of the 2× compound-containing mixture was added to each well with 6 replicates for each concentration, reaching 1× concentration, with the highest concentration being 30 μM. The plate was incubated for 7 days. At the end point, the CellTiter-Glo assay (Promega) was then performed according to the manufacturer’s instruction to determine cell proliferation. The luminescence signal intensity of each well was acquired on an Infinite M1000Pro microplate reader and the data was analyzed using GraphPad Prism software (GraphPad Software).

Assay [2] concerns SEM cells. In words: Cell viability assay (CellTiter-Glo, 7 days), SEM. In kind it is cell-based, human. The protocol: as §1
For assay [3], the target named is T1, NSD2 (both long and short isoforms) (Homo sapiens, UniProt O96028).
T1 sequence (O96028 211-350 limits assumed): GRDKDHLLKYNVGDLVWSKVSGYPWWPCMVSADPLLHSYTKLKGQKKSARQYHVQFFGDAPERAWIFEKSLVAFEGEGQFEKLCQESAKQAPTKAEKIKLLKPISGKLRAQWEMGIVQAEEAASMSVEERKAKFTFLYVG
In words: NSD2 degradation by immunoblotting in ALL cell lines RPMI-8402 and SEM (NSD2 E1099K). In kind it is cell-based. The note with it: RPMI-8402 and SEM cells; 0.5 and 2 μM for 24 h or 2 μM for 12 and 24 h. The protocol: As previous studies have shown that ALL cell lines with NSD2 gain-of-function mutation are more dependent on NSD2 regarding H3K36me2 level and cell proliferation,[7],[8] we further characterized LLC0424 in ALL cell lines with NSD2 E1099K gain-of-function mutation (RPMI-8402 and SEM). We first treated these cells with LLC0424 with different concentrations for 24 h. […] In addition, we compared the degradation efficiency of LLC0424 with the two previously published NSD2 degraders 6 and 7 at different concentrations and time points.
After treatment, the cultured cells were collected and rinsed with phosphate-buffered saline (PBS) in room temperature. The cells were treated with RIPA buffers (ThermoFisher Scientific) supplemented with Halt Protease and Phosphatase Inhibitor Cocktail (ThermoFisher Scientific). After sonication and centrifugation, the total amount of protein in the cell lysates was measured by Pierce Bovine Serum Albumin Standard Pre-Diluted Set (ThermoFisher Scientific). After mixed with LDS-sample buffer (Invitrogen) supplemented with Sample Reducing Agent (Invitrogen) and heated in 70 °C for 10 min, equal amount of protein was loaded into NuPAGE 4–12%, Bis-Tris Protein Gel (ThermoFisher Scientific) or NuPAGE 3–8%, Tris-Acetate Protein Gel (ThermoFisher Scientific), and blotted with primary antibodies. After incubated with HRP-conjugated secondary antibodies, the membranes were developed with ECL Prime Western Blotting Detection Reagent (cytiva) and imaged on Odyssey Fc Imager (LiCOR Biosciences).

For assay [4], the system named is RPMI-8402 cells. In words: Colony formation in soft agar. In kind it is cell-based, human. The note with it: 2 μM, 30 days, INT staining. The protocol: Colony formation in soft agar was conducted in 12-well plates, with the bottom layer containing 750 μL of 0.8% agarose in 10% FBS/cell media and the top layer containing 0.4% agarose (SEM cells or RPMI-8402 cells). LLC0424 was added every 3 days to the liquid layer on top agarose to reach a final concentration of 2 μM. At the 30 days of treatment, the cells were stained with iodonitrotetrazolium chloride (INT) by adding 500 μL 1× INT PBS solution into each well. After the staining, images were taken using brightfield microscope and plate scan was conducted using Epson Perfection V700 Photo. Colony number counting was performed using ImageJ.

Assay [5] relates to SEM cells. In words: RNA-seq global transcriptome analysis. In kind it is cell-based, human. The note with it: 14 days of treatment, versus DMSO. The protocol: NSD2 is the primary methyltransferase that transfers dimethyl to H3K36 in ALL with NSD2 gain-of-function mutation. Therefore, the effects of LLC0424 on H3K36me2 was evaluated in SEM and RPMI-8402 cells. […] Meanwhile, LLC0424 treatment also led to downregulation of H3K36Me2 in RPMI-8402 cells within 24 h (Figure 6B). […] We also conducted a colony formation assay to evaluate the effect of LLC0424 on the stem cell-like property of the leukemia cells. […] As LLC0424 leads to strong degradation of both NSD2-L and NSD2-S, the phenotypic changes upon LLC0424 treatment result from complete inactivation of NSD2 activity, including adaptor-like function of NSD2-S and SET-domain dependent enzymatic function of NSD2-L. The specific contributions of NSD2 isoforms warrant future investigation. To characterize the genes affected by LLC0424 treatment, we performed global transcriptome analysis of SEM cells treated by DMSO, LLC0424, or LLC0424N. […]
Total RNA was isolated from cells using the miRNeasy Mini Kit (Qiagen). […] Paired-end libraries were sequenced with the Illumina HiSeq 2500 (2 × 100 nucleotide read length) with sequence coverage to 15–20 M paired reads. […] Then we performed the analysis in R. First, EdgeR (edgeR_3.39.6) was used to perform read counts normalization and filtering (counts >10) and then Limma-Voom (limma_3.53.10) was used to analyze differential expression.

The target of assay [6] is T2, NSD2 (Homo sapiens, UniProt O96028).
T2 sequence (O96028 1-1365): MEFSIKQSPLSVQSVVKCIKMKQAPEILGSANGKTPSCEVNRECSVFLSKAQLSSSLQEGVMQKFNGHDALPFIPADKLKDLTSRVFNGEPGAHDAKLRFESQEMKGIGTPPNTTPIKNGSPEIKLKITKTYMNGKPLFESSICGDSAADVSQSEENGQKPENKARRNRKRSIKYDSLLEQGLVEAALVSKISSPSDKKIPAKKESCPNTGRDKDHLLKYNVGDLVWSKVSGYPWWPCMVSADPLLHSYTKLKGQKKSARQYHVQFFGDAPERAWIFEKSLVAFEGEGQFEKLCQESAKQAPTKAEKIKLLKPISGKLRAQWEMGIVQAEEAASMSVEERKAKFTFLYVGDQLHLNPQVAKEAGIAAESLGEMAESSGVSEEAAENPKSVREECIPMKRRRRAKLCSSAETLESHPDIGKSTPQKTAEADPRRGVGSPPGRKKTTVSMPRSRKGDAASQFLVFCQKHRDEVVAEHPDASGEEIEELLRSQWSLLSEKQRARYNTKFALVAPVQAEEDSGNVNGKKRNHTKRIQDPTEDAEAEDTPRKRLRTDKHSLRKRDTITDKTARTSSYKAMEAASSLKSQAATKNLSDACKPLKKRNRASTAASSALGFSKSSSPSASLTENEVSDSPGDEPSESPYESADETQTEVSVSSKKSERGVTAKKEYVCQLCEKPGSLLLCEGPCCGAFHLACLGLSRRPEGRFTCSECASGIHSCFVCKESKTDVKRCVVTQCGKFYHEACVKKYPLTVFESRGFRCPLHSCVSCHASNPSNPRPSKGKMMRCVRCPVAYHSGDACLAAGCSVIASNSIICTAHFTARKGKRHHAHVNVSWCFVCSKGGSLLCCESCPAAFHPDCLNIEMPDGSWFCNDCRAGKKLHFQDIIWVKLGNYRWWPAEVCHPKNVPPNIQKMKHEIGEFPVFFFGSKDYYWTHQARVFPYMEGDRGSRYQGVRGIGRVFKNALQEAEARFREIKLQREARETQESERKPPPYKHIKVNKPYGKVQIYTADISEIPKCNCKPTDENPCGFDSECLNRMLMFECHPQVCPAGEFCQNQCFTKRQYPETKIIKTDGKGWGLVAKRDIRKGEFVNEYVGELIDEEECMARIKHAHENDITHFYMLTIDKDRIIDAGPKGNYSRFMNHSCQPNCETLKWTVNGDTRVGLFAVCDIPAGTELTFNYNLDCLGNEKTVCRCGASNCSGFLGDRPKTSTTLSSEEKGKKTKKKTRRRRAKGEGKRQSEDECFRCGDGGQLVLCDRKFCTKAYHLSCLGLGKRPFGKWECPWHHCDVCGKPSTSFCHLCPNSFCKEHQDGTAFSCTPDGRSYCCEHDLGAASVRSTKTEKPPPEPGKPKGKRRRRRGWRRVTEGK
In words: Compound screening: NSD2 degradation by immunoblotting in VCaP cells. The note with it: 2 μM, VCaP cells, 24 h, immunoblotting.
Method: After treatment, the cultured cells were collected and rinsed with phosphate-buffered saline (PBS) in room temperature. The cells were treated with RIPA buffers (ThermoFisher Scientific) supplemented with Halt Protease and Phosphatase Inhibitor Cocktail (ThermoFisher Scientific). After sonication and centrifugation, the total amount of protein in the cell lysates was measured by Pierce Bovine Serum Albumin Standard Pre-Diluted Set (ThermoFisher Scientific). […] After incubated with HRP-conjugated secondary antibodies, the membranes were developed with ECL Prime Western Blotting Detection Reagent (cytiva) and imaged on Odyssey Fc Imager (LiCOR Biosciences).
Western blot was then performed as previously described to detect NSD2 degradation.

The test system of assay [7] is NSD2. Details: method as in PMID 36976643. To be noted: U2OS cells, 24 h treatment; cited from earlier work.

These results are taken from article PMC11094793, “Discovery of LLC0424 as a Potent and Selective in Vivo NSD2 PROTAC Degrader” (Journal of Medicinal Chemistry, 2024).

On to `CN1C(=O)CCC(N2C(=O)c3ccc(N4CCC(NC(=O)c5ccc(NC(=O)c6ccc(CN(C(=O)c7ccc8c(c7)OCC(=O)N8)C7CC7)cc6)cc5)CC4)cc3C2=O)C1=O` (stereo not drawn) [LLC0424N], for which the “IC50 (growth, cell viability)” value in the assay with RPMI-8402 cells [1] and in the assay with SEM cells [2] was “much less active” throughout. For the same compound, the “NSD2 degradation, comparison of degraders” value in assay [3] is given as “much less active”. The “formation of cell colonies” value with RPMI-8402 cells [4] is on record as “not”. Further, the “differentially expressed genes (transcriptome)” value with SEM cells [5] is listed as “little transcription level changes”.

On to `NCCCCCCNC(=O)c1ccc(NC(=O)c2ccc(CN(C(=O)c3ccc4c(c3)OCC(=O)N4)C3CC3)cc2)cc1` [compound 7, reference compound], for which, on NSD2 [6], the “% Degradation” value turned out to be 30%. In assay [3], the “NSD2 degradation, comparison of degraders” value is “much less active”. In the assay on NSD2 [7], the DC50 was 350 nM and the Dmax is given as 79%.
